From publication PMC8667930, “Novel sulphonamide-bearing methoxyquinazolinone derivatives as anticancer and apoptosis inducers: synthesis, biological evaluation and in silico studies” (Journal of Enzyme Inhibition and Medicinal Chemistry, 2021)

What was measured:
[1] = system: HepG2 cells (liver cancer); experiment: MTT cytotoxicity assay, HepG2; assay type: cell-based; conditions: Homo sapiens, HepG2, 48 h treatment, mean ± SD (n = 3), NA = no activity
Experimental: (§1) The MTT assay was performed to test the antiproliferative activity of the synthesised compounds, as per the methodology described by Alqahtani and co-workers[35]. Briefly, A549, HepG2, LoVo, MCF-7 and HUVEC cell lines were seeded in 96-cell culture plates (5 × 10^4 per well) and allowed 24 h for adherence. The cells were then treated with different concentrations of each compound, and 5-fluorouracil was used as a positive control. Following the treatment period (48 h), 10 µL of MTT solution (5 mg/mL) was added to each well and the plates were incubated at 37 °C for 2–4 h. Isopropanol (100 µL) acidified with 0.1 N HCl was added to solubilise the formazan products and the plate was kept on a shaker for 10 min. The optical density of each mixture was measured at 570 nm using an enzyme-linked immunosorbent assay plate reader (ELISA plate reader, Bio-Tek, USA). The concentrations of tested compounds required to inhibit cell growth by 50% (IC50) were calculated using a dose-response curve. Cell survival was calculated using the following equation: Cell survival (%)=(OD of treated sample)/(OD of untreated sample)×100

[2] = system: Bcl-2; experiment: Western blot, Bcl-2 protein level in MCF-7 cells; assay type: cell-based, human; conditions: MCF-7, 10, 20 and 30 μM, 24 h, β-actin internal control
Experimental: (§2) MCF-7 cells were treated with compounds 6 and 10 for 24 h. The cells were then harvested and washed twice with 1x PBS, by adding lysis buffer containing 20 mM Tris (pH 7.5), 150 mM NaCl, 1 mM sodium ethylenediaminetetraacetic acid, 1 mM ethylene glycol-bis (β-aminoethyl ether)-N,N,N′,N′-tetraacetic acid, 1% Triton X100, 1 µg/mL leupeptin, and 100 µM phenylmethylsulphonyl fluoride, to prepare the total cell extract. The lysate was cooled on ice for 1 h and clarified by centrifugation at 13000 rpm at 4 °C for 15 min. The supernatants were collected. The protein concentrations of all the samples were determined using Bradford reagent (BioRad, Hercules, CA, USA). For western blot analysis, 30 − 35 µg of the total protein was loaded onto 10% sodium dodecyl sulphate-polyacrylamide gel and then transferred to a polyvinylidene fluoride membrane. The membrane was blocked with 5% bovine serum albumin in 0.1% Tween-tris-buffered saline (TBST) buffer for 2 h at room temperature, and then washed thrice with TBST. The membrane was incubated with primary antibodies for Bcl-2, p53, caspase7, Bax, and β-actin (1:200, Santa Cruz Biotechnology). […] It was then ready for immunodetection; the membrane was incubated with enhanced chemiluminescence western blotting detection reagents (Amersham, Pharmacia Biotech Inc., Piscataway, NJ, USA) and bands were obtained on exposing to X-ray films (Amersham).

[3] = system: LoVo cells (colon cancer); experiment: MTT cytotoxicity assay, LoVo; assay type: cell-based; conditions: Homo sapiens, LoVo, 48 h treatment, mean ± SD (n = 3), NA = no activity
Experimental: as §1

[4] = system: Bax; experiment: Western blot, Bax protein level in MCF-7 cells; assay type: cell-based, human; conditions: MCF-7, 10, 20 and 30 μM, 24 h, β-actin internal control
Experimental: as §2

[5] = system: p53; experiment: RT-PCR, p53 mRNA expression in MCF-7 cells; assay type: cell-based, human; conditions: MCF-7, 10, 20 and 30 µM, 24 h, compared to control, β-actin internal control
Experimental: (§3) MCF-7 cells were cultured with different concentrations (10, 20 and 30 µM) of compounds 6 and 10 for 24 h, and the untreated cells were used as a control. The cells were lysed using Trizol reagent (Invitrogen, USA). Total RNA was extracted as per the manufacturer’s instructions. Total RNA was quantitated by taking 2 µL of resuspended RNA on a Nano drop spectrophotometer (Thermo Scientific, USA) and reverse transcribing an equal amount (1 µg) of RNA to make complementary deoxyribonucleic acid (cDNA) using a Super Script VILO cDNA synthesis Kit (Invitrogen), as per the manufacturer’s protocol, in a final volume of 20 µL. The mixture was incubated at 42 °C for 1 h. The generated cDNA (2 µL) was used to assess the mRNA expression of apoptotic genes, including caspase-7, Bax, Bcl-2, and p53. The actin gene was used as an internal control. RT-PCR was performed using 5x Firepol Master Mix ready to load (Solis BioDyne, Tartu, Estonia), as per the manufacturer’s instructions. The program was run as follows: initial denaturation at 95 °C for 5 min, denaturation at 95 °C for 30 s, annealing at 55 °C for 45 s, elongation at 72 °C for 45 s (30 cycles), and final extension at 72 °C for 10 min. The RT-PCR products were electrophoresed on a 1.2% agarose gel containing ethidium bromide, and the gel was imaged on a Licor machine.

[6] = system: Bax; experiment: RT-PCR, Bax mRNA expression in MCF-7 cells; assay type: cell-based, human; conditions: MCF-7, 10, 20 and 30 µM, 24 h, compared to control, β-actin internal control
Experimental: as §3

[7] = system: p53; experiment: Western blot, p53 protein level in MCF-7 cells; assay type: cell-based, human; conditions: MCF-7, 10, 20 and 30 μM, 24 h, β-actin internal control
Experimental: as §2

[8] = system: MCF-7 cells (human breast cancer cell line); experiment: MTT cytotoxicity assay, MCF-7; assay type: cell-based; conditions: Homo sapiens, MCF7, 48 h treatment, mean ± SD (n = 3), NA = no activity
Experimental: as §1

[9] = system: MCF-7 cells; experiment: Annexin V-FITC/PI apoptosis assay by flow cytometry; assay type: cell-based, human; conditions: 24 h, average ± SD, control 2.9 ± 0.84% (6) / 3.3 ± 0.28% (10)
Experimental: Apoptosis was measured using the Annexin V/PI detection kit (BioLegend, CA, USA), as per the manufacturer’s instructions. Briefly, MCF-7 cells were treated with different concentrations (10, 20 and 30 µM) of compounds 6 and 10 for 24 h. After treatment, the detached and adherent cells were collected, washed, and resuspended in 100 µL of 1X binding buffer. Then, 5 µL of Annexin V and 5 µL of PI were added to the resuspended cells. After incubating for 15 min in the dark, 400 µL of binding buffer was added to each tube and cell samples were analysed using Cytomics FC 500 (Beckman Coulter, Brea, CA, USA). Data collection and analysis were conducted using the CXP software V. 3.0 (Aspect, Phoenix, AZ, USA).

[10] = system: HUVEC (normal human umbilical vein endothelial cells); experiment: MTT cytotoxicity assay, HUVEC; assay type: cell-based; conditions: Homo sapiens, HUVEC, 48 h treatment, mean ± SD (n = 3), NA = no activity
Experimental: as §1

[11] = system: A549 cells (non-small cell lung carcinoma); experiment: MTT cytotoxicity assay, A549; assay type: cell-based; conditions: Homo sapiens, A549, 48 h treatment, mean ± SD (n = 3), NA = no activity
Experimental: as §1

[12] = system: caspase-7; experiment: Western blot, caspase-7 protein level in MCF-7 cells; assay type: cell-based, human; conditions: MCF-7, 10, 20 and 30 μM, 24 h, β-actin internal control
Experimental: as §2

[13] = system: caspase-7; experiment: RT-PCR, caspase-7 mRNA expression in MCF-7 cells; assay type: cell-based, human; conditions: MCF-7, 10, 20 and 30 µM, 24 h, compared to control, β-actin internal control
Experimental: as §3

[14] = system: Bcl-2; experiment: RT-PCR, Bcl-2 mRNA expression in MCF-7 cells; assay type: cell-based, human; conditions: MCF-7, 10, 20 and 30 µM, 24 h, compared to control, β-actin internal control
Experimental: as §3

[15] = system: MCF-7 cells; experiment: Cell cycle analysis by flow cytometry (propidium iodide); assay type: cell-based, human; conditions: 24 h, average ± SD, control 0.75 ± 0.07%
Experimental: Cell cycle analysis was conducted as previously described by Alqahtani and co-workers[35]. Briefly, MCF-7 cells were seeded in 6-well plates and incubated for 24 h before the addition of various concentrations (10, 20 and 30 µM) of compounds 6 and 10. After incubating for 24 h, the cells were harvested, washed, and resuspended in PBS. The cells were fixed with 70% ethanol at 4 °C for 4 h. The cells were then incubated with RNase (100 µg/mL) and PI (50 µg/mL) for 30 min in the dark. Flow cytometry analysis was performed using Cytomics FC 500 (Beckman Coulter, Brea, CA, USA).

melting point | Structure (SMILES) | IC50 [1] | Bcl-2 protein expression [2] | IC50 [3] | Bax protein level [4] | expression of p53 mRNA [5] | expression of Bax mRNA [6] | p53 protein level [7] | IC50 [8] | proportion of cells in early apoptosis ([9]; MCF-7, 10 µM) | proportion of cells in early apoptosis ([9]; MCF-7, 20 µM) | proportion of cells in early apoptosis ([9]; MCF-7, 30 µM) | IC50 [10] | IC50 [11] | caspase-7 protein level [12] | expression of caspase-7 mRNA [13] | expression of Bcl-2 mRNA [14] | proportion of sub-G1 phase cells ([15]; MCF-7, 10 µM) | proportion of sub-G1 phase cells ([15]; MCF-7, 20 µM) | proportion of sub-G1 phase cells ([15]; MCF-7, 30 µM)
> 350 °C | COc1cccc2c(=O)n(-c3ccc(S(N)(=O)=O)cc3)c(SCC(=O)Nc3ccccc3C)nc12 [Compound 6, 2-((8-Methoxy-4-oxo-3-(4-sulphamoylphenyl)-3,4-dihydroquinazolin-2-yl)thio)-N-(o-tolyl) acetamide] | 45.6 ± 0.71 µM | down-regulated | 22.6 ± 0.86 µM | markedly increased | increased | increased | markedly increased | 20.2 ± 0.6 µM | 7.6 ± 1.4% | 11.4 ± 1.97% | 18.35 ± 2.4% | 88.27 ± 0.32 µM | 51.5 ± 1.36 µM | markedly increased | increased | downregulated | 3.35 ± 0.07% | 7.8 ± 0.14% | 22.85 ± 1.2%
292 to 294 °C | CCc1cccc(NC(=O)CSc2nc3c(OC)cccc3c(=O)n2-c2ccc(S(N)(=O)=O)cc2)c1 [Compound 10, N-(3-Ethylphenyl)-2-((8-methoxy-4-oxo-3-(4-sulphamoylphenyl)-3,4-dihydroquinazolin-2-yl)thio) acetamide] | 42.3 ± 1.59 µM | down-regulated | 22.3 ± 2.26 µM | markedly increased | increased | increased | markedly increased | 20.9 ± 0.4 µM | 9.55 ± 0.2% | – | 16 ± 0.84% | 32 ± 1.47 µM | 48 ± 2.78 µM | markedly increased | increased | downregulated | 4.3 ± 0.28% | – | 30.6 ± 0.07%
